Assay results: patent US9526785B2, “Pharmaceuticals for oral delivery” (Enteris BioPharma, Inc., priority 2013, dated 2016)

Tests used:
[1] = Tigecycline plasma PK after IV bolus in anesthetized rats; type: in vivo; settings: female, Sprague-Dawley, rat
Description: Naïve, female Sprague-Dawley Rats (Taconic Farms, Germantown, N.Y.) housed in groups of three were maintained in a climate-controlled room on a 12:12 h light-dark cycle with food and water available ad libitum. Animals weighed approximately 250 g at the time of testing. Rats were fasted overnight (with water available), prior to dosing. Tigecycline stock was prepared fresh on the day of each study in water and diluted in the indicated formulations.
Intravenous (IV) doses were administered as a bolus injection into the left carotid […] at a dose volume of 1.6 mL/kg. Intraduodenal doses were administered as bolus injections into the duodenum at a dose volume of 1.2 mL/kg.
Female rats were maintained in groups of 3 per polycarbonate (or equivalent) shoebox cage with fresh wood chip bedding at 20-22° C. under a 12 hour on/off light:dark cycle. The rats were fasted overnight prior to surgery and anesthetized by intramuscular injection of 0.3 mL fresh ketamine (67 mg/mL)/xylazine (42 mg/mL) in 0.9% saline into the hind flank. After the rats went limp they were injected intraperitoneally (IP) with 0.1 mL ketamine/xylazine. The anesthetic state was maintained by IP injection of ketamine/xylazine on an as needed basis. Animal weights were determined post-anesthesia induction.
An indwelling catheter for blood sampling was inserted into the right carotid artery by exposing the trachea with Mayo scissors, clamping the bottom of the […] and tying off the top with surgical suture. The area between was nicked with small sharp scissors and Intramedic polyethylene tubing was inserted into the nicked area. The artery with the tubing was sealed with suture to prevent leakage. A 23-gauge Intramedic Luer Stub Adapter was inserted into the cannula and attached to a 3 way valve which was connected to a 3 cc syringe filled with 0.9% normal saline and a 1 cc syringe filled with 5 U/mL sodium heparin for blood sampling.
Blood samples were collected in tubes containing 20 μL 180 mM EDTA. The tubes were maintained on ice and then centrifuged at approximately 3000 rpm at 4° C. for 5 minutes. Plasma was harvested immediately after centrifugation of the samples and stored at −20° C. pending analysis.
Minocycline (VWR international) was used as an internal standard. Sample processing/clean-up of plasma samples was carried out offline by protein precipitation with acidified acetonitrile.
The HPLC system consisted of Shimadzu SIL-HTc HPLC system equipped with dual Shimadzu LC-10ADvp isopumps, a Shimadzu CTO-10ASvp column temperature controller and a Shimadzu SPD-10Avp variable wavelength detector. […] Mobile phase A consisted of 23 mM phosphate buffer pH 2.5 with 6 mM 1-octanesulfonic acid, while mobile phase B consisting of pure acetonitrile. […] The mobile phase flow rate was 1.2 mL/min. Detection was performed using the SPD-10Avp variable wavelength detector set at 350 nm, with a sensitivity of 0.001 aufs.
The samples were then centrifuged under refrigeration at 13 k rpm for 30 minutes. The supernatant was taken and the liquid was removed to dryness in a turbovap. The samples were then reconstituted in 55 μL 0.1M phosphate buffer, pH 3.8. Samples were maintained at 10° C. while on the autoinjector during sequence. The injection volume was 50 μL. The unknown concentration in rat plasma samples was determined by interpolation of the peak area ratios of analyte:internal standard versus the ratio of their nominal concentrations into the regression line obtained from calibration standards spiked in pooled rat plasma. No regression weighting was used for the calculations. […] The calibration curve covered the range of 0.05 μg/mL to 5.0 μg/mL.
Due to analytical issues observed in the analyses of earlier study samples, the analytical method was changed slightly for later samples. Mobile phase A was changed to 23 mM phosphate buffer pH 2.5 with 4 mM 1-octanesulfonic acid, while mobile phase B was changed to 90% acetonitrile, 10% water, with 2 mM 1-octanesulfonic acid. […]

[2] = reported; in humans; cited from earlier work
[3] = cited from earlier work
[4] = known formulations; cited from earlier work
[5] = IV bolus 0.64 mg/kg, PBS (RA851)

CN(C)c1cc(NC(=O)CNC(C)(C)C)c(O)c2c1C[C@H]1C[C@H]3[C@H](N(C)C)C(O)=C(C(N)=O)C(=O)[C@@]3(O)C(O)=C1C2=O [Tigecycline]
AUC(0-t) [1, 5]: 970 ng·h/mL
Cmax [1, 5]: 1790 ng/mL
Tmax [1, 5]: 5 min
concentration at 0 min [1, 5]: 0 ng/mL
concentration at 5 min [1, 5]: 1790 ng/mL
concentration at 10 min [1, 5]: 888 ng/mL
concentration at 20 min [1, 5]: 447 ng/mL
concentration at 30 min [1, 5]: 376 ng/mL
concentration at 60 min [1, 5]: 290 ng/mL
concentration at 120 min [1, 5]: 216 ng/mL
concentration at 240 min ([1]; IV bolus 0.64 mg/kg, PBS (RA851), 240 min): 116 ng/mL
AUC(0-t) ([1]; IV bolus 12 mg/kg, PBS (RA853)): 13200 ng·h/mL
Cmax ([1]; IV bolus 12 mg/kg, PBS (RA853)): 50700 ng/mL
Tmax ([1]; IV bolus 12 mg/kg, PBS (RA853)): 5 min
concentration at 0 min ([1]; IV bolus 12 mg/kg, PBS (RA853)): 0 ng/mL
concentration at 5 min ([1]; IV bolus 12 mg/kg, PBS (RA853)): 50700 ng/mL
concentration at 10 min ([1]; IV bolus 12 mg/kg, PBS (RA853)): 26200 ng/mL
concentration at 20 min ([1]; IV bolus 12 mg/kg, PBS (RA853)): 9310 ng/mL
concentration at 30 min ([1]; IV bolus 12 mg/kg, PBS (RA853)): 5760 ng/mL
concentration at 60 min ([1]; IV bolus 12 mg/kg, PBS (RA853)): 2610 ng/mL
concentration at 120 min ([1]; IV bolus 12 mg/kg, PBS (RA853)): 1870 ng/mL
AUC(0-t) ([1]; RA869, IV, 0.6 mg/kg): 132 ng·h/mL
Cmax ([1]; RA869, IV, 0.6 mg/kg): 369 ng/mL
Tmax ([1]; RA869, IV, 0.6 mg/kg): 7.5 min
single dose half-life [2]: approximately 20 hours
aqueous solubility [3]: approximately 300 mg/mL
maximal oral bioavailablity % (% F) [4]: less than 5%
